From patent US8604061B2, “2-aminooxazolines as TAAR1 ligands” (Hoffmann-La Roche Inc., priority 2007, dated 2013)
Where two headings read alike, the source gives them in different places.

Molecular target: TAAR1 (Mus musculus, UniProt Q923Y8)
Assay: TAAR1 radioligand binding, membranes of stably transfected HEK293 cells (mouse)
Procedure: For the construction of expression plasmids the coding sequences of human, rat and mouse TAAR 1 were amplified from genomic DNA essentially as described by Lindemann et al.. The Expand High Fidelity PCR System (Roche Diagnostics) was used with 1.5 mM Mg^2+ and purified PCR products were cloned into pCR2.1-TOPO cloning vector (Invitrogen) following the instructions of the manufacturer. PCR products were subcloned into the pIRESneo2 vector (BD Clontech, Palo Alto, Calif.), and expression vectors were sequence verified before introduction in cell lines.
HEK293 cells (ATCC #CRL-1573) were cultured essentially as described Lindemann et al. (2005). For the generation of stably transfected cell lines HEK293 cells were transfected with the pIRESneo2 expression plasmids containing the TAAR coding sequences (described above) with Lipofectamine 2000 (Invitrogen) according to the instructions of the manufacturer, and 24 hrs post transfection the culture medium was supplemented with 1 mg/ml G418 (Sigma, Buchs, Switzerland). After a culture period of about 10 d clones were isolated, expanded and tested for responsiveness to trace amines (all compounds purchased from Sigma) with the cAMP Biotrak Enzyme immunoassay (EIA) System (Amersham) following the non-acetylation EIA procedure provided by the manufacturer.
Cells at confluence were rinsed with ice-cold phosphate buffered saline without Ca^2+ and Mg^2+ containing 10 mM EDTA and pelleted by centrifugation at 1000 rpm for 5 min at 4° C. The pellet was then washed twice with ice-cold phosphate buffered saline and cell pellet was frozen immediately by immersion in liquid nitrogen and stored until use at −80° C. Cell pellet was then suspended in 20 ml HEPES-NaOH (20 mM), pH 7.4 containing 10 mM EDTA, and homogenized with a Polytron (PT 3000, Kinematica) at 10,000 rpm for 10 s. The homogenate was centrifuged at 48,000×g for 30 min at 4° C. and the pellet resuspended in 20 ml HEPES-NaOH (20 mM), pH 7.4 containing 0.1 mM EDTA (buffer A), and homogenized with a Polytron at 10,000 rpm for 10 s. The homogenate was then centrifuged at 48,000×g for 30 min at 4° C. and the pellet resuspended in 20 ml buffer A, and homogenized with a Polytron at 10,000 rpm for 10 s. Protein concentration was determined by the method of Pierce (Rockford, Ill.). The homogenate was then centrifuged at 48,000×g for 10 min at 4° C., resuspended in HEPES-NaOH (20 mM), pH 7.0 including MgCl2 (10 mM) and […] homogenized with a Polytron at 10,000 rpm for 10 s.
Binding assay was performed at 4° C. in a final volume of 1 ml, and with an incubation time of 30 min. […] Non-specific binding was defined as the amount of [^3H]-rac-2-(1,2,3,4-tetrahydro-1-naphthyl)-2-imidazoline bound in the presence of the appropriate unlabelled ligand (10 μM). Competing ligands were tested in a wide range of concentrations (10 pM-30 μM). […] Each experiment was performed in duplicate. All incubations were terminated by rapid filtration through UniFilter-96 plates (Packard Instrument Company) and glass filter GF/C, pre-soaked for at least 2 h in polyethylenimine 0.3%, and using a Filtermate 96 Cell Harvester (Packard Instrument Company). The tubes and filters were then washed 3 times with 1 ml aliquots of cold buffer B. Filters were not dried and soaked in Ultima gold (45 μl/well, Packard Instrument Company) and bound radioactivity was counted by a TopCount Microplate Scintillation Counter (Packard Instrument Company).

[1] = mouse/rat, cell not marked 'rat', radioligand [3H]-rac-2-(1,2,3,4-tetrahydro-1-naphthyl)-2-imidazoline, 4° C., read-out: Ki (μM) mouse/rat

| Structure (SMILES) | Ki [1] | Ki |
| --- | --- | --- |
| C[C@]1(c2cc(Cl)ccc2F)COC(N)=N1 [Example 270, (S)-4-(5-Chloro-2-fluoro-phenyl)-4-methyl-4,5-dihydro-oxazol-2-ylamine] | 0.0016 µM | – |
| NC1=N[C@@H](c2ccc(Br)c(Cl)c2)CO1 [Example 330, (+)-(S)-4-(4-Bromo-3-chloro-phenyl)-4,5-dihydro-oxazol-2-ylamine] | 0.0008 µM | – |
| CC1(c2cc(F)c(F)cc2F)COC(N)=N1 (racemic) [Example 251, (RS)-4-Methyl-4-(2,4,5-trifluoro-phenyl)-4,5-dihydro-oxazol-2-ylamine] | 0.0086 µM | – |
| NC1=N[C@@H](Cc2cccc3ccccc23)CO1 [Example 48, (S)-4-Naphthalen-1-ylmethyl-4,5-dihydro-oxazol-2-ylamine] | 0.0002 µM | – |
| CC(C[C@H]1COC(N)=N1)c1cccc(C(F)(F)F)c1 (stereo partly drawn) [Example 193, (S)-4-[2-(3-Trifluoromethyl-phenyl)-propyl]-4,5-dihydro-oxazol-2-ylamine] | 0.0043 µM | – |
| NC1=N[C@@H](c2cc(F)ccc2C(F)(F)F)CO1 [Example 259, (+)-(S)-4-(5-Fluoro-2-trifluoromethyl-phenyl)-4,5-dihydro-oxazol-2-ylamine] | 0.0088 µM | – |
| NC1=N[C@@H](c2ccc(Br)cc2C(F)(F)F)CO1 [Example 338, (+)-(S)-4-(4-Bromo-2-trifluoromethyl-phenyl)-4,5-dihydro-oxazol-2-ylamine] | 0.0031 µM | – |
| NC1=N[C@@H](c2cccc(Cl)c2Cl)CO1 [Example 168, (S)-4-(2,3-Dichloro-phenyl)-4,5-dihydro-oxazol-2-ylamine] | 0.0006 µM | – |
| NC1=N[C@@H](CCc2ccncc2F)CO1 [Example 158, (S)-4-[2-(3-Fluoro-pyridin-4-yl)-ethyl]-4,5-dihydro-oxazol-2-ylamine] | 0.0068 µM | – |
| NC1=N[C@@H](c2ccc(Cl)cc2C(F)(F)F)CO1 [Example 238, (+)-(S)-4-(4-Chloro-2-trifluoromethyl-phenyl)-4,5-dihydro-oxazol-2-ylamine] | 0.003 µM | – |
| NC1=N[C@H](c2ccc(Cl)cc2Cl)CO1 [Example 295, (−)-(R)-4-(2,4-Dichloro-phenyl)-4,5-dihydro-oxazol-2-ylamine] | 0.0082 µM | – |
| NC1=N[C@@H](Cc2ccccc2Cl)CO1 [Example 60, (S)-4-(2-Chloro-benzyl)-4,5-dihydro-oxazol-2-ylamine] | 0.0047 µM | – |
| C[C@@H](C[C@H]1COC(N)=N1)c1ccccc1 [82 (S, S), (S)-4-((S)-2-phenyl-propyl)-4,5-dihydro-oxazol-2-ylamine] | 0.008 µM | – |
| NC1=N[C@@H](c2ccccc2Cl)CO1 [Example 4, (S)-4-(2-Chloro-phenyl)-4,5-dihydro-oxazol-2-ylamine] | 0.0012 µM | – |
| NC1=N[C@@H](c2ccc(Cl)cc2)CO1 [Example 169, (S)-4-(4-Chloro-phenyl)-4,5-dihydro-oxazol-2-ylamine] | 0.0014 µM | – |
| COc1ccc([C@H]2COC(N)=N2)cc1C [Example 129, (S)-4-(4-Methoxy-3-methyl-phenyl)-4,5-dihydro-oxazol-2-ylamine] | 0.0029 µM | – |
| COc1ccc(C2COC(N)=N2)cc1C (racemic) [Example 35, (RS)-4-(4-Methoxy-3-methyl-phenyl)-4,5-dihydro-oxazol-2-ylamine] | – | 0.0033 µM |
| NC1=N[C@@H](c2cc(Cl)c(Cl)cc2C(F)(F)F)CO1 [Example 242, (+)-(S)-4-(4,5-Dichloro-2-trifluoromethyl-phenyl)-4,5-dihydro-oxazol-2-ylamine] | 0.0072 µM | – |
| NC1=N[C@@H](c2cc(F)cc(Cl)c2)CO1 [Example 178, (S)-4-(3-Chloro-5-fluoro-phenyl)-4,5-dihydro-oxazol-2-ylamine] | 0.0004 µM | – |
| Cc1cc(CC[C@H]2COC(N)=N2)ccc1F [Example 140, (S)-4-[2-(4-Fluoro-3-methyl-phenyl)-ethyl]-4,5-dihydro-oxazol-2-ylamine] | 0.001 µM | – |

| Structure (SMILES) | Ki [1] | Ki |
| --- | --- | --- |
| NC1=N[C@@H](CCc2ccc(Cl)cc2)CO1 [Example 256, (S)-4-[2-(4-Chloro-phenyl)-ethyl]-4,5-dihydro-oxazol-2-ylamine] | 0.0006 µM | – |
| NC1=N[C@@H](Cc2ccc3ccccc3c2)CO1 [Example 49, (S)-4-Naphthalen-2-ylmethyl-4,5-dihydro-oxazol-2-ylamine] | 0.0054 µM | – |
| NC1=N[C@@H](c2ccc(F)cc2F)CO1 [37b (S), (S)-4-(2,4-Difluoro-phenyl)-4,5-dihydro-oxazol-2-ylamine] | – | 0.0087 µM |
| NC1=N[C@@H](CCc2ccccc2C(F)(F)F)CO1 [Example 110, (S)-4-[2-(2-Trifluoromethyl-phenyl)-ethyl]-4,5-dihydro-oxazol-2-ylamine] | 0.0018 µM | – |
| CC(C[C@H]1COC(N)=N1)c1ccc(C(F)(F)F)cc1 (stereo partly drawn) [Example 165, (S)-4-[2-(4-Trifluoromethyl-phenyl)-propyl]-4,5-dihydro-oxazol-2-ylamine] | 0.0012 µM | – |
| CC(C[C@H]1COC(N)=N1)c1ccccc1F (stereo partly drawn) [Example 217, (S)-4-[2-(2-Fluoro-phenyl)-propyl]-4,5-dihydro-oxazol-2-ylamine] | 0.0015 µM | – |
| CCC(C[C@H]1COC(N)=N1)c1ccc(F)c(F)c1 (stereo partly drawn) [Example 211, (S)-4-[2-(3,4-Difluoro-phenyl)-butyl]-4,5-dihydro-oxazol-2-ylamine] | 0.0024 µM | – |
| NC1=NC(c2ccc(Cl)cc2C2CC2)CO1 (racemic) [Example 359, (RS)-4-(4-Chloro-2-cyclopropyl-phenyl)-4,5-dihydro-oxazol-2-ylamine] | – | 0.0021 µM |
| NC1=N[C@@H](CSc2ccccc2)CO1 [Example 195, (R)-4-Phenylsulfanylmethyl-4,5-dihydro-oxazol-2-ylamine] | 0.0018 µM | – |
| NC1=N[C@@H](c2cccc(Cl)c2)CO1 [Example 192, (+)-(S)-4-(3-Chloro-phenyl)-4,5-dihydro-oxazol-2-ylamine] | 0.0019 µM | – |
| NC1=NC(c2ccc(F)c(F)c2F)CO1 (racemic) [Example 17, (RS)-4-(2,3,4-Trifluoro-phenyl)-4,5-dihydro-oxazol-2-ylamine] | – | 0.0057 µM |
| CC1(c2cc(F)c(F)c(F)c2)COC(N)=N1 (racemic) [Example 273, (RS)-4-Methyl-4-(3,4,5-trifluoro-phenyl)-4,5-dihydro-oxazol-2-ylamine] | 0.0095 µM | – |
| CCC(C[C@H]1COC(N)=N1)c1ccc(F)c(Cl)c1 (stereo partly drawn) [Example 356, (S)-4-[2-(3-Chloro-4-fluoro-phenyl)-butyl]-4,5-dihydro-oxazol-2-ylamine] | 0.0043 µM | – |
| NC1=N[C@@H](c2ccccc2Br)CO1 [Example 265, (+)-(S)-4-(2-Bromo-phenyl)-4,5-dihydro-oxazol-2-ylamine] | 0.0009 µM | – |
| C[C@]1(c2ccc(C(F)(F)F)cc2F)COC(N)=N1 [Example 215, (S)-4-(2-Fluoro-4-trifluoromethyl-phenyl)-4-methyl-4,5-dihydro-oxazol-2-ylamine] | 0.0024 µM | – |
| NC1=N[C@@H](c2cccc(C(F)(F)F)c2)CO1 [Example 153, (S)-4-(3-Trifluoromethyl-phenyl)-4,5-dihydro-oxazol-2-ylamine] | 0.0083 µM | – |
| NC1=NC(c2ccc(Cl)c(Cl)c2)CO1 (racemic) [Example 14, (RS)-4-(3,4-Dichlorophenyl)-4,5-dihydro-oxazol-2-ylamine] | – | 0.0005 µM |
| Cc1ccccc1C1COC(N)=N1 (racemic) [Example 8, (RS)-4-o-Tolyl-4,5-dihydro-oxazol-2-ylamine] | – | 0.0058 µM |
| NC1=NC(c2cc(Cl)ccc2Cl)CO1 (racemic) [Example 260, (RS)-4-(2,5-Dichloro-phenyl)-4,5-dihydro-oxazol-2-ylamine] | – | 0.0013 µM |
| NC1=N[C@@H](CCc2cc(C(F)(F)F)ccc2F)CO1 [Example 156, (S)-4-[2-(2-Fluoro-5-trifluoromethyl-phenyl)-ethyl]-4,5-dihydro-oxazol-2-ylamine] | 0.0064 µM | – |
